According to ChEMBL document CHEMBL3124752, “Small molecule disruptors of the glucokinase-glucokinase regulatory protein interaction: 1. Discovery of a novel tool compound for in vivo proof-of-concept” (J Med Chem, 2014):

Key:
[1] = biological target: T1, Glucokinase regulatory protein (Rattus norvegicus, UniProt Q07071); assay: Inhibition of GKRP-GK interaction in rat primary hepatocytes assessed as translocation of GK from nucleus to cytoplasm preincubated for 20 mins followed by glucose addition measured after 40 mins by fluorescence assay; format: cell-based, Hepatocyte
T1 sequence (Q07071 whole entry): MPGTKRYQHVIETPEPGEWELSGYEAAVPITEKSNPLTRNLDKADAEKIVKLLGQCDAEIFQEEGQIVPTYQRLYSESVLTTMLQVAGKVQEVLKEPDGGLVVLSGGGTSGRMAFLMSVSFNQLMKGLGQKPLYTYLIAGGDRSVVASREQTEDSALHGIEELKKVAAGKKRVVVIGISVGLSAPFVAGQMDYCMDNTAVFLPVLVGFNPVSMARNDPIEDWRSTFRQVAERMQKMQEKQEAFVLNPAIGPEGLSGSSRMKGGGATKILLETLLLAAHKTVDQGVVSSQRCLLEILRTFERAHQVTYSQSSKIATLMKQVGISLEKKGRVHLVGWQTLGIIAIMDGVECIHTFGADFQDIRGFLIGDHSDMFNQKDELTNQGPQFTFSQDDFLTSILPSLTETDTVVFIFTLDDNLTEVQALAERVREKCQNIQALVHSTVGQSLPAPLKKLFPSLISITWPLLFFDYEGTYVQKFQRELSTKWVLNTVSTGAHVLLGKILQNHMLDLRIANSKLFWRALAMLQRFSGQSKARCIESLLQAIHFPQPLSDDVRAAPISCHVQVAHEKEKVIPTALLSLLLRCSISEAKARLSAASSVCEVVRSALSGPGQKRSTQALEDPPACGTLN

Rattus norvegicus [2] = species: Rattus norvegicus; assay: Toxicity in Zucker diabetic fatty rat assessed as change in plasma triglyceride level; format: organism-based; conditions: in vivo
Rattus norvegicus [3] = species: Rattus norvegicus; assay: Toxicity in Zucker diabetic fatty rat assessed as change in plasma insulin level; format: organism-based; conditions: in vivo
Rattus norvegicus [4] = assay: Toxicity in Wistar rat assessed as induction of hypoglycemia at 100 mg/kg, po; format: organism-based; parameters: dose 100 mg/kg, route oral; conditions: in vivo
Rattus norvegicus [5] = assay: fCmax in Wistar rat at 100 mg/kg, po; format: ADME, organism-based; parameters: dose 100 mg/kg, route oral; conditions: in vivo
Rattus norvegicus [6] = species: Rattus norvegicus; assay: fCmax in Sprague-Dawley rat; format: ADME, organism-based; conditions: in vivo
[7] = Fraction unbound in Sprague-Dawley rat plasma at 2 mg/kg, iv and 10 mg/kg, po; format: ADME, organism-based; conditions: other: intravenous and oral
[8] = Oral bioavailability in Sprague-Dawley rat at 10 mg/kg; format: ADME, organism-based; conditions: in vivo
[9] = Cmax in Sprague-Dawley rat at 10 mg/kg, po; format: ADME, organism-based; parameters: dose 10 mg/kg, route oral; conditions: in vivo
[10] = Intrinsic clearance in Sprague-Dawley rat liver microsomes at 1 uM after 30 mins in presence of NADPH; format: ADME; conditions: read-out: CLH
Hexokinase-4 = biological target: T2, Hexokinase-4 (Homo sapiens, UniProt P35557); assay: Activation of human glucokinase
T2 sequence (P35557 whole entry): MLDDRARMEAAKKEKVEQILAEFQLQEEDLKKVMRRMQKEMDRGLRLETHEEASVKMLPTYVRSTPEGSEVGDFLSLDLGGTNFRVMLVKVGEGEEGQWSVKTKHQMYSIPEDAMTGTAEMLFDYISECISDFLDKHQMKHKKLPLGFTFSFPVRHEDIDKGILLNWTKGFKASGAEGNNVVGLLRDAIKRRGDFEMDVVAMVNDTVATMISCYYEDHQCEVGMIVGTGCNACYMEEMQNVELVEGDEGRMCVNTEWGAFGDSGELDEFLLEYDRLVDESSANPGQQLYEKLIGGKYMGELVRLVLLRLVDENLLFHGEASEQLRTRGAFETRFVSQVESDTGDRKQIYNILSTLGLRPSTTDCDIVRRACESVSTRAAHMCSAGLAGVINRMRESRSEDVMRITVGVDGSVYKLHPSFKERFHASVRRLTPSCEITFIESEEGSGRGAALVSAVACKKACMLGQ

[11] = Volume of distribution at steady state in Sprague-Dawley rat at 2 mg/kg, iv; format: ADME, organism-based; parameters: dose 2 mg/kg, route intravenous; conditions: in vivo, read-out: Vdss
[12] = Clearance in Sprague-Dawley rat at 2 mg/kg, iv; format: ADME, organism-based; parameters: dose 2 mg/kg, route intravenous; conditions: in vivo

## O=S(=O)(c1cccs1)N1CCN(c2ccc(C(O)(C(F)(F)F)C(F)(F)F)cc2)[C@@H](CC2CCOCC2)C1
[1]
  EC50: 5.47 µM

## C[C@H]1COCCN1C[C@H]1CN(S(=O)(=O)c2cccs2)CCN1c1ccc([C@](C)(O)C(F)(F)F)cc1
[1]
  EC50: 0.22 µM

## C[C@H]1COCCN1C[C@H]1CN(S(=O)(=O)c2cccs2)CCN1c1ccc([C@@](C)(O)C(F)(F)F)cc1
Rattus norvegicus [2]
  Activity: Non-toxic
Rattus norvegicus [3]
  Activity: Non-toxic
Rattus norvegicus [4]
  Activity: Toxic
Rattus norvegicus [5]
  fCmax: 0.056 µM
Rattus norvegicus [6]
  fCmax: 0.004 µM
[7]
  fraction unbound: 0.037
[8]
  bioavailability: 7.86%
[9]
  Cmax: 110 nM
[10]
  microsomal CLint at 1 µM: 608 µL/min/mg
Hexokinase-4
  EC50: > 50 µM
[1]
  EC50: 0.082 µM

## C[C@@](O)(c1ccc(N2CCN(S(=O)(=O)c3cccs3)C[C@@H]2CC2CCOCC2)cc1)C(F)(F)F
[1]
  EC50: 0.89 µM

## O=S(=O)(c1cccs1)N1CCN(c2ccc(C(O)(C(F)(F)F)C(F)(F)F)cc2)[C@@H](CN2CCOCC2)C1
[1]
  EC50: 3.99 µM

## O=S(=O)(c1cccs1)N1CCN(c2ccc(C(O)(C(F)(F)F)C(F)(F)F)cc2)CC1
[7]
  fraction unbound: 0.0062
[8]
  bioavailability: 28%
[9]
  Cmax: 350 nM
[11]
  Vd: 6.81 L/kg
[12]
  clearance: 44 mL/min/kg
Hexokinase-4
  EC50: > 50 µM

## C[C@H]1COCCN1C[C@H]1CN(S(=O)(=O)c2cccs2)CCN1c1ccc(C(O)(C(F)(F)F)C(F)(F)F)cc1
[1]
  EC50: 1.81 µM

## C[C@](O)(c1ccc(N2CCN(S(=O)(=O)c3cccs3)C[C@@H]2CC2CCOCC2)cc1)C(F)(F)F
[1]
  EC50: 4.76 µM
